The source made the active and inactive calls. The rule behind the calls is not given here.
Legend:
[1] = molecular target: T1, Beta-1,4-galactosyltransferase 1 (Bos taurus, UniProt P08037); test: Inhibition of bovine beta-1,4-GalT […] at 29% donor UDP-Gal turn over rates by inorganic phosphate release from UDP and malachite green dye based inorganic phosphate detection based assay
T1 sequence (P08037 whole entry): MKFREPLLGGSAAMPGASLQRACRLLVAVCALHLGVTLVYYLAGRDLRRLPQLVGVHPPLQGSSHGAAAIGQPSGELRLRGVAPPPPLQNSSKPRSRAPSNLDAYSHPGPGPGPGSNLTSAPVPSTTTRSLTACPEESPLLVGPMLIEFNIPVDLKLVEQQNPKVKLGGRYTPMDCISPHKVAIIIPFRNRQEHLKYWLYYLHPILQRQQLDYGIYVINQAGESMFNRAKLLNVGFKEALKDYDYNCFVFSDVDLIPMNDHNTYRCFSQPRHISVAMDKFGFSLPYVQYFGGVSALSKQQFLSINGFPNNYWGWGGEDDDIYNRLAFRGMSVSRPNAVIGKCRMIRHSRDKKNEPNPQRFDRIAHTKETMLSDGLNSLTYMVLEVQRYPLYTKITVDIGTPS

[2] = molecular target: Intestinal-type alkaline phosphatase (Bos taurus) (UniProt P19111); test: Activity of calf intestinal phosphatase assessed as compound turn over rates by inorganic phosphate release and malachite green dye based inorganic phosphate detection based assay
[3] = molecular target: T2, Alpha 1,4 galactosyltransferase (Neisseria meningitidis, UniProt Q8KHJ3); test: Inhibition of Neisseria meningitidis alpha-1,4-galactosyltransferase LgtC by inorganic phosphate release from UDP and malachite green dye based inorganic phosphate detection based assay
T2 sequence (Q8KHJ3 whole entry): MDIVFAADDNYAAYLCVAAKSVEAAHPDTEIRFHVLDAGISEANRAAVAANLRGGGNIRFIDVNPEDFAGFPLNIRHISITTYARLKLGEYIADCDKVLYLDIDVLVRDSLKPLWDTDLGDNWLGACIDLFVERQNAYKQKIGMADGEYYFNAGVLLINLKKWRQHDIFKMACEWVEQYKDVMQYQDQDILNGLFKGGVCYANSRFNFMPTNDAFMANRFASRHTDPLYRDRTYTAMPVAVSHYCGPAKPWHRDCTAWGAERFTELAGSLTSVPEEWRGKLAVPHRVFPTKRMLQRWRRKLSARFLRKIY

[4] = molecular target: T3, Alpha 1,4 galactosyltransferase (Neisseria meningitidis) (UniProt Q8KHJ3); test: Activity of Neisseria meningitidis alpha-1,4-galactosyltransferase LgtC assessed as compound turn over rates at 50 to 100 uM incubated for 20 mins by inorganic phosphate release and malachite green dye based inorganic phosphate detection based assay
T3 sequence (whole entry): T2 sequence (Q8KHJ3 whole entry)

[5] = molecular target: T4, Beta-1,4-galactosyltransferase 1 (Bos taurus) (UniProt P08037); test: Inhibition of bovine beta-1,4-GalT […] at 10% to 50 donor UDP-Gal turn over rates by inorganic phosphate release from UDP and malachite green dye based inorganic phosphate detection based assay
T4 sequence (whole entry): T1 sequence (P08037 whole entry)

[6] = molecular target: T3, Alpha 1,4 galactosyltransferase (Neisseria meningitidis); test: Inhibition of Neisseria meningitidis alpha-1,4-galactosyltransferase LgtC at 90% donor UDP-Gal turn over rates by inorganic phosphate release from UDP and malachite green dye based inorganic phosphate detection based assay
[7] = molecular target: T3, Alpha 1,4 galactosyltransferase (Neisseria meningitidis); test: Inhibition of Neisseria meningitidis alpha-1,4-galactosyltransferase LgtC at 50% donor UDP-Gal turn over rates by inorganic phosphate release from UDP and malachite green dye based inorganic phosphate detection based assay
[8] = molecular target: T3, Alpha 1,4 galactosyltransferase (Neisseria meningitidis); test: Inhibition of Neisseria meningitidis alpha-1,4-galactosyltransferase LgtC at 20% donor UDP-Gal turn over rates by inorganic phosphate release from UDP and malachite green dye based inorganic phosphate detection based assay

Intestinal-type alkaline phosphatase (Bos taurus), sequence (P19111 20-506 limits assumed): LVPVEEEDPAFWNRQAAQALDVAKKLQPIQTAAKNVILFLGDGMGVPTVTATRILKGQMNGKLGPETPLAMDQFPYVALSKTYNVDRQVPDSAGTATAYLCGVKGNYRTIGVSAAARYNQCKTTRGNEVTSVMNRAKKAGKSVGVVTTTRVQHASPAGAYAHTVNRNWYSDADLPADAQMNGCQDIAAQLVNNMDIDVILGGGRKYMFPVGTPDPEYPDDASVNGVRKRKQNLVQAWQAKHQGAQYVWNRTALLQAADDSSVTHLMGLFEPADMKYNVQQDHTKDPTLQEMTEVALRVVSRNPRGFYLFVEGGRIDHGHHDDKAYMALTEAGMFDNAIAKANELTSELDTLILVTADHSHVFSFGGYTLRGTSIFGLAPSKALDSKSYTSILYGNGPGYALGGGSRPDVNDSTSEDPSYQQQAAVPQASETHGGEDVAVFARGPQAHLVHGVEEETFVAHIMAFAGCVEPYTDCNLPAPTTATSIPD

Row | Structure (SMILES) | IC50 [1] | Activity [2] | IC50 [3] | Activity [4] | inhibition [5] | inhibition [6] | inhibition [7] | inhibition [8]
1 | O=Cc1ccc(-c2cn([C@@H]3O[C@H](COP(=O)(O)OP(=O)(O)O[C@H]4O[C@H](CO)[C@H](O)[C@H](O)[C@H]4O)[C@@H](O)[C@H]3O)c(=O)[nH]c2=O)s1 | 9 µM | Active | 0.9 µM | inactive | – | – | – | –
2 | O=c1ccn([C@@H]2O[C@H](CO)[C@@H](O)[C@H]2O)c(=O)[nH]1 | – | – | – | – | inactive | inactive | inactive | inactive
3 | O=c1ccn([C@@H]2O[C@H](COP(=O)(O)OP(=O)(O)O)[C@@H](O)[C@H]2O)c(=O)[nH]1 | – | Active | – | – | – | – | – | –
